In the supplement of paper PMC10307832:

What follows are cell lines tested with CC1(C)CNc2cc(NC(=O)c3cccnc3NCc3ccncc3)ccc21 [Motesanib] + Nc1ncn([C@H]2C[C@H](O)[C@@H](CO)O2)c(=O)n1 [Decitabine] (partner 2 µM) (assay: relative viability (nuclei count vs DMSO), 5 days (fraction); higher = more cells survive). Details: first compound 1 µM.
Summary of the method: (§1)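 The day after seeding in 1536-well plates, lung cancer cell lines were treated by pin tool with a single drug, or with a fixed anchor-drug dose together with five library-drug doses (not always all listed) in √10 steps. After 5 days, a combined fix-and-stain solution (final 0.05% Triton X-100, 1% formaldehyde, 1 ug/ml Hoechst) was added. Nuclei counted on 4× images gave relative viability as treated counts over vehicle counts, reported as the median of duplicate plates.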

Row | Cell Line | relative viability
1 | LOU-NH91 | 0.809
2 | ChaGo-K-1 | 0.607
3 | NCI-H2170 | 0.604
4 | NCI-H2405 | 0.78
5 | HOP-62 | 0.774
6 | HCC-44 | 0.932
7 | A549 | 0.338
8 | NCI-H522 | 0.691
9 | SW 900 | 0.749
10 | NCI-H1395 | 0.791
11 | NCI-H1793 | 0.589
12 | NCI-H1944 | 0.508
13 | ABC-1 | 1.26
14 | NCI-H358 | 0.276

These cell lines were tested with C[C@@]1(C(=O)Nc2ccc(F)nc2)CCCN1c1nc(Nc2cc(C3CC3)n[nH]2)c2cccn2n1 + C[C@@H](Oc1cc(-c2cnn(C3CCNCC3)c2)cnc1N)c1c(Cl)ccc(F)c1Cl [Crizotinib] (partner 1 µM) in the same assay as above. Details: first compound 0.04 µM.
Summary of the method: as §1

Row | Cell Line | relative viability
15 | NCI-H727 | 0.687
16 | NCI-H1650 | 0.966
17 | EBC-1 | 0.195
18 | NCI-H1703 | 0.586
19 | NCI-H1993 | 0.663
20 | SW 1573 | 0.665
21 | NCI-H838 | 0.868
22 | LCLC-103H | 1.07
23 | NCI-H520 | 0.802
24 | NCI-H2126 | 0.923
25 | EMC-BAC-2 | 0.675
26 | NCI-H2085 | 0.913
27 | Calu-6 | 0.881
28 | HCC-366 | 0.612
29 | NCI-H1666 | 0.811
30 | NCI-H596 | 1.05
31 | LK-2 | 0.208
32 | NCI-H2087 | 0.88
33 | SK-MES-1 | 1.09

Row | Cell Line | relative viability
34 | H3255 | 0.865
35 | COR-L23 | 0.737
36 | COR-L 105 | 0.805
37 | IA-LM | 0.68
38 | LOU-NH91 | 0.736
39 | ChaGo-K-1 | 0.989
40 | NCI-H2170 | 1.09
41 | NCI-H2405 | 0.862
42 | HOP-62 | 0.896
43 | HCC-44 | 0.732
44 | A549 | 0.52
45 | NCI-H1299 | 0.963
46 | CAL-12T | 0.509
47 | NCI-H2228 | 0.395
48 | NCI-H1563 | 0.829
49 | NCI-H1944 | 0.981
50 | ABC-1 | 1.01
51 | NCI-H358 | 0.474

Same assay, conditions: first compound 0.1265 µM

Row | Cell Line | relative viability
52 | NCI-H727 | 0.436
53 | NCI-H1650 | 0.813
54 | EBC-1 | 0.168
55 | NCI-H1703 | 0.535
56 | SW 1573 | 0.63
57 | NCI-H838 | 0.67
58 | LCLC-103H | 1.01
59 | NCI-H520 | 0.499
60 | NCI-H2126 | 0.845
61 | EMC-BAC-2 | 0.697
62 | NCI-H2085 | 0.979
63 | Calu-6 | 0.743
64 | HCC-366 | 0.442
65 | NCI-H1666 | 0.845
66 | NCI-H596 | 0.984
67 | LK-2 | 0.335
68 | NCI-H2087 | 1.06
69 | SK-MES-1 | 0.84

Row | Cell Line | relative viability
70 | H3255 | 0.979
71 | COR-L23 | 0.653
72 | COR-L 105 | 0.454
73 | IA-LM | 0.983
74 | LOU-NH91 | 0.812
75 | ChaGo-K-1 | 0.644
76 | NCI-H2170 | 1.11
77 | NCI-H2405 | 0.759
78 | HOP-62 | 0.96
79 | HCC-44 | 0.696
80 | A549 | 0.402
81 | NCI-H1299 | 0.956
82 | CAL-12T | 0.487
83 | NCI-H2228 | 0.342
84 | NCI-H1563 | 0.91
85 | NCI-H1944 | 1.03
86 | ABC-1 | 0.695
87 | NCI-H358 | 0.394

Same assay, conditions: first compound 0.4 µM

Row | Cell Line | relative viability
88 | NCI-H727 | 0.259
89 | NCI-H1650 | 0.9
90 | EBC-1 | 0.211
91 | NCI-H1703 | 0.792
92 | NCI-H1993 | 0.64
93 | SW 1573 | 0.509
94 | NCI-H838 | 0.621
95 | LCLC-103H | 0.904
96 | NCI-H520 | 0.618
97 | NCI-H2126 | 0.672
98 | EMC-BAC-2 | 0.66
99 | NCI-H2085 | 0.844
100 | Calu-6 | 0.597
101 | HCC-366 | 0.388
102 | NCI-H1666 | 0.708
103 | NCI-H596 | 0.857
104 | LK-2 | 0.224
105 | NCI-H2087 | 0.699
106 | SK-MES-1 | 0.861

Row | Cell Line | relative viability
107 | H3255 | 0.793
108 | COR-L23 | 0.494
109 | COR-L 105 | 0.5
110 | IA-LM | 0.646
111 | LOU-NH91 | 0.667
112 | ChaGo-K-1 | 1.01
113 | NCI-H2170 | 1.03
114 | NCI-H2405 | 0.649
115 | HOP-62 | 0.888
116 | HCC-44 | 0.513
117 | A549 | 0.248
118 | NCI-H1299 | 0.97
119 | CAL-12T | 0.346
120 | NCI-H2228 | 0.262
121 | NCI-H1563 | 0.947
122 | NCI-H1944 | 0.875
123 | ABC-1 | 0.7
124 | NCI-H358 | 0.241

Same assay, conditions: first compound 1.265 µM

Row | Cell Line | relative viability
125 | NCI-H727 | 0.211
126 | NCI-H1650 | 0.366
127 | EBC-1 | 0.2
128 | NCI-H1993 | 0.633
129 | SW 1573 | 0.531
130 | NCI-H838 | 0.708
131 | LCLC-103H | 1.04
132 | NCI-H520 | 0.636
133 | NCI-H2126 | 0.98
134 | EMC-BAC-2 | 0.816
135 | NCI-H2085 | 0.635
136 | Calu-6 | 0.491
137 | HCC-366 | 0.0918
138 | NCI-H1666 | 0.574
139 | NCI-H596 | 1.06
140 | LK-2 | 0.159
141 | NCI-H2087 | 0.613
142 | SK-MES-1 | 0.879

Row | Cell Line | relative viability
143 | H3255 | 0.924
144 | COR-L23 | 0.333
145 | COR-L 105 | 0.456
146 | IA-LM | 0.456
147 | LOU-NH91 | 0.725
148 | ChaGo-K-1 | 0.791
149 | NCI-H2170 | 1.27
150 | NCI-H2405 | 0.889
151 | HOP-62 | 0.981
152 | HCC-44 | 0.597
153 | A549 | 0.089
154 | NCI-H1299 | 0.96
155 | CAL-12T | 0.161
156 | NCI-H2228 | 0.255
157 | NCI-H1563 | 0.828
158 | NCI-H1944 | 1.17
159 | ABC-1 | 0.272
160 | NCI-H358 | 0.216
